Experimental data from US8101622B2, “Pyridopyrimidinone inhibitors of PI3Kα and mTOR” (Exelixis, Inc., priority 2008, dated 2012).
pIC50: −log10 of the molar value.

Legend:
[1] = system: PC-3 cells; experiment: PC-3 2 day BrdU cell proliferation assay; type: cell-based, human
Description: (§1) MCF-7 and PC-3 2 Day BrdU Cell Proliferation Assay
(§2) MCF-7 (ATCC) and PC-3 (ATCC) cells were seeded onto 96-well plates (Corning, #3904) in their growth medium, DMEM (Cellgro, #10-014-CV)+10% heat-inactivated FBS (Invitrogen)+1% Pen/Strep (Cellgro, #30-002-CI)+1% NEAA (Cellgro, #25-025-CI) at a seeding density of 15000 and 8000 cells/well, respectively. Cells were incubated overnight at 37° C., 5% CO2. Cells were then treated the next day with a serial dilution of compound in its growth medium (containing a final concentration of 0.3% DMSO). Triplicate wells were used for each compound concentration. The control wells received 0.3% DMSO in growth medium. The plates were incubated at 37° C., 5% CO2 for an additional 48 hr. Cells were labeled with BrdU (Roche, #10280879001, 20 μM) for 2-4 hr and then fixed with 70% EtOH+0.1 M NaOH for 30 min at RT. Anti-BrdU-Peroxidase (Roche, #11585860001, 1/2000 in PBS+1% BSA) conjugate was added to the cells, after which the plates were washed 3 times with 1×PBS. Chemiluminescent substrate solution (Pierce, #3707A/B) was added, and the plates were read for luminescence using the Wallac Victor plate reader for 0.1 sec. IC50 values were determined based on cell proliferation with compound treatment compared to the 0.3% DMSO vehicle control.

[2] = system: pS6 (S240/S244) PC-3 cell line; experiment: pS6 (S240/244) ELISA assay in PC-3 cells; type: cell-based, human; settings: 3 h compound, ratio pS6 to total S6
Description: PC-3 and MCF-7 cells (both from ATCC) were seeded at 8×10^3 cells per well in 96-well plates (Corning, 3904) in DMEM (Cellgro) containing 10% FBS (Cellgro), 1% NEAA (Cellgro) and 1% penicillin-streptomycin (Cellgro). Two plates were prepared for cell fixation ELISA, one for pS6 (S240/244) and one for total S6. Cells were incubated at 37° C., 5% CO2 for 48 h, and the growth medium was replaced with serum-free DMEM. Serial dilutions of the test compound in 0.3% DMSO (vehicle) were added to the cells and incubated for 3 h. To fix the cells, medium was removed and 100 μL/well of 4% formaldehyde (Sigma Aldrich, F8775) in TBS (20 mM Tris, 500 mM NaCl) was added to each well at RT for 30 min. Cells were washed 3 times with 200 μL TBS containing 0.1% Tween20 (Bio-Rad, catalog #170-6351) (TBST), and quenched with 100 μL 0.6% H2O2 (VWR International, catalog #VW3742-1) in TBST for 30 min at RT. Plates were washed 3 times with 200 μL TBST and blocked with 100 μL 5% BSA (Jackson ImmunoResearch, 001-000-173) in TBST for 1 h at RT. Anti-pS6 (S240/244) antibody (Cell Signaling Technology, 2215) and anti-total-S6 antibody (Cell Signaling Technology, 2217) were diluted 1/500 in 5% BSA in TBST, and 50 μL of either primary antibody solution was added to one plate to detect pS6 or total S6. After incubation overnight at 4° C., plates were washed 4 times with 200 μL TBST. Goat anti-rabbit secondary antibody (Jackson ImmunoResearch, catalog #111-035-003) was diluted at 1/15000 in 5% BSA in TBST. 100 μL of antibody solution was added to each well and incubated for 1 h at RT. Plates were washed 3 times with 200 μL TBST and 2 times with 200 μL TBS. Chemiluminescent substrate (Super Signal Elisa Femto Chemiluminescent Substrate; Pierce, 37075) was prepared at RT. One-hundred μL of chemiluminescent substrate per well was added and then the plate was shaken for 1 min. Luminescence was read immediately on a Wallac plate reader. IC50 values were determined based on the ratio of pS6 to total S6 signal for compound treated wells, normalized to the DMSO-treated control wells.

[3] = biological target: PI3Kβ (Homo sapiens, UniProt P42338); experiment: PI3K luciferase-coupled chemiluminescence assay (PI3Kβ in place of PI3Kα); type: biochemical; settings: second value of cell 'P13K-α, β'
PI3Kβ, sequence (P42338 whole entry, species assumed): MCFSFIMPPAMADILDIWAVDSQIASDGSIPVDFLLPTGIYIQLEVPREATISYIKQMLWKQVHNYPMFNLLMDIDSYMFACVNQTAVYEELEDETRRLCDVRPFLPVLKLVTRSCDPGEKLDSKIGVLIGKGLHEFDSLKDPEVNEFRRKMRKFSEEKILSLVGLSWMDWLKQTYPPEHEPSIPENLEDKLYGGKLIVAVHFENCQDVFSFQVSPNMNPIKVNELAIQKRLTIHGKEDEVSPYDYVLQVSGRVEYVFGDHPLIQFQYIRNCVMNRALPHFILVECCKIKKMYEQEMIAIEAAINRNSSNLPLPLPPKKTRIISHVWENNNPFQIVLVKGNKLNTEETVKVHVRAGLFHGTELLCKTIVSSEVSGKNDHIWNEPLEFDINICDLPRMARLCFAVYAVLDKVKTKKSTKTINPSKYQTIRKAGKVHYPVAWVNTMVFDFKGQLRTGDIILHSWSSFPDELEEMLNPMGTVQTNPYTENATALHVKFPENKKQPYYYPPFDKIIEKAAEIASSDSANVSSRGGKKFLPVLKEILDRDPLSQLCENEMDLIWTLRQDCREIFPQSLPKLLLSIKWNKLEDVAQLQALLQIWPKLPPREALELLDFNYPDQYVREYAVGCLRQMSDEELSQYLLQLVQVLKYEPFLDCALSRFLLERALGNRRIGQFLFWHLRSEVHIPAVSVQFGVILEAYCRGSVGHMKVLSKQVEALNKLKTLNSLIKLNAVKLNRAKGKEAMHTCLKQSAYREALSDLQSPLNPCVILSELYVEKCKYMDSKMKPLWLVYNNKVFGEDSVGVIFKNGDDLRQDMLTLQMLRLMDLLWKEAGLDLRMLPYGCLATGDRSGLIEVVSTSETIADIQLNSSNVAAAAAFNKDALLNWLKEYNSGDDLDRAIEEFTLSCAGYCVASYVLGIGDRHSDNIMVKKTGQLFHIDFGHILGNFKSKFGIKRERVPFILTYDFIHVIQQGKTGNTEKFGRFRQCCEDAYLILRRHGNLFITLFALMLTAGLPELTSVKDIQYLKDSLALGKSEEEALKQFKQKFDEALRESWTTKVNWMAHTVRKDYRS
PI3Kβ, sequence (P27986 whole entry partner, species assumed): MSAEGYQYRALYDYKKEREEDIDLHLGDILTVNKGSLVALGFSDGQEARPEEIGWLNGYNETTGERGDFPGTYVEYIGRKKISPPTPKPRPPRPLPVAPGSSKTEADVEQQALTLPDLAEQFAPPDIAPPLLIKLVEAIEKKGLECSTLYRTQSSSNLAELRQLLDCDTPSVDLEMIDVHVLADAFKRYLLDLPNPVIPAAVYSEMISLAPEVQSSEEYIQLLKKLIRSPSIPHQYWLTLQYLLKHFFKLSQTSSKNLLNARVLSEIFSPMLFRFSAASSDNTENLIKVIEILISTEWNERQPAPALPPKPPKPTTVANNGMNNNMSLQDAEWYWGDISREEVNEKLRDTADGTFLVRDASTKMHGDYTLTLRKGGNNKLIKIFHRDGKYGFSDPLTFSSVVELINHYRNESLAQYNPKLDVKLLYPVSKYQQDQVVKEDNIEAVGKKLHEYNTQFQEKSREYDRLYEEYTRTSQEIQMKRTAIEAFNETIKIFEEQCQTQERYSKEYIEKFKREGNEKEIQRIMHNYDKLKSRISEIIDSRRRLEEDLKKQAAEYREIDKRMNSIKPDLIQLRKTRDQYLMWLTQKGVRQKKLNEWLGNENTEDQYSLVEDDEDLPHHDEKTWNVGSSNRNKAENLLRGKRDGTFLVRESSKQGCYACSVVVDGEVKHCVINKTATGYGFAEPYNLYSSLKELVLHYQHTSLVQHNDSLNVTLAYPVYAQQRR
Description: (§3) PI3K Luciferase-Coupled Chemiluminescence Assay Protocol
(§4) PI3Kα activity is measured as the percent of ATP consumed following the kinase reaction using luciferase-luciferin-coupled chemiluminescence. Reactions were conducted in 384-well white, medium binding microtiter plates (Greiner). Kinase reactions were initiated by combining test compounds, ATP, substrate (PIP2), and kinase in a 20 μL volume in a buffer solution. The standard PI3Kalpha assay buffer is composed 50 mM Tris, pH 7.5, 1 mM EGTA, 10 mM MgCl2, 1 mM DTT and 0.03% CHAPS. The standard assay concentrations for enzyme, ATP, and substrate are 1.5 nM, 1 μM, and 10 μM, respectively. The reaction mixture was incubated at ambient temperature for approximately 2 h. Following the kinase reaction, a 10 μL aliquot of luciferase-luciferin mix (Promega Kinase-Glo) was added and the chemiluminescence signal measured using a Victor2 plate reader (Perkin Elmer). Total ATP consumption was limited to 40-60% and IC50 values of control compounds correlate well with literature references. PI3Kα can be replaced with PI3Kβ, PI3Kδ, or PI3Kγ to determine the compound's activity for the other isoforms of PI3K.

[4] = biological target: PI3Kα (Homo sapiens, UniProt P42336); experiment: PI3K luciferase-coupled chemiluminescence assay (PI3Kα); type: biochemical; settings: first value of cell 'P13K-α, β'; 1 μM ATP, 10 μM PIP2
PI3Kα, sequence (P42336 whole entry): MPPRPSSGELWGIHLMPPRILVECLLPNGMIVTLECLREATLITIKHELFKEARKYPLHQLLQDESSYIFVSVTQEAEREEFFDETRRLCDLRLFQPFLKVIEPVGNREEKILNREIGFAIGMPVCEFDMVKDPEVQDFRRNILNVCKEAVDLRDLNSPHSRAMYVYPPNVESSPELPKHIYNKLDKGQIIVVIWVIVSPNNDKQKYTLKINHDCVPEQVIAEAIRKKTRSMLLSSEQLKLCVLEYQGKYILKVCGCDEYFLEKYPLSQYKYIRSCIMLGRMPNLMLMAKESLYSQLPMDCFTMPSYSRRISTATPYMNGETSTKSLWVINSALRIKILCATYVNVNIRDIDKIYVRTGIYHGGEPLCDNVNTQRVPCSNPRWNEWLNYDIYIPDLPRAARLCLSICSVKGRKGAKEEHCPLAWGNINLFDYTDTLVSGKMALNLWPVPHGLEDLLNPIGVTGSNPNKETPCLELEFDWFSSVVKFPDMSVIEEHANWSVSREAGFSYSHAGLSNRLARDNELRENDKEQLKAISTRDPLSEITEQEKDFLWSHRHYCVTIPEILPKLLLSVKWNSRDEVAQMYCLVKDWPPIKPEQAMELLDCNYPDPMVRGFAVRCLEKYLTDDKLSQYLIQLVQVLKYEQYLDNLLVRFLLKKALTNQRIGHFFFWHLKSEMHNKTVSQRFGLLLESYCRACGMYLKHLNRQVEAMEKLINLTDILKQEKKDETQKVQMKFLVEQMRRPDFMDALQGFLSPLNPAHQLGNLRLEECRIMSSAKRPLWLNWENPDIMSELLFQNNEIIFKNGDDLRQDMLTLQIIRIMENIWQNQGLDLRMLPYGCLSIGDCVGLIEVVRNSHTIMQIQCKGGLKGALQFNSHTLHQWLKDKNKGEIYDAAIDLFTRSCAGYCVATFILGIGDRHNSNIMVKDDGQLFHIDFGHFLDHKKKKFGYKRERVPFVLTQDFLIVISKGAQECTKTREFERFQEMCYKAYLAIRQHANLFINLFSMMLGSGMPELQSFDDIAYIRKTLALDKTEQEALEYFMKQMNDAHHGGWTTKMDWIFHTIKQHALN
PI3Kα, sequence (P27986 whole entry partner): as the sequence (P27986 whole entry partner, species assumed) above
Description: as §3, §4

[5] = system: MCF-7 cells; experiment: MCF-7 2 day BrdU cell proliferation assay; type: cell-based, human; settings: MCF-7, 48 hr
Description: as §1, §2

[6] = biological target: mTOR/GbL/Raptor (mTORC1) (Homo sapiens, UniProt P42345); experiment: mTOR/GbL/Raptor (mTORC1) ELISA assay; type: biochemical; settings: mTORC1, 10 μM ATP, 4E-BP1 substrate
Description: mTOR/GbL/Raptor (mTORC1) ELISA Assay
The measurement of mTORC1 enzyme activity was performed in an ELISA assay format following the phosphorylation of 4E-BP1 protein. All experiments were performed in the 384-well format. Generally, 0.5 μL DMSO containing varying concentrations of the test compound was mixed with 15 μL enzyme solution. Kinase reactions were initiated with the addition of 15 μL of substrates-containing solution. The assay conditions were as follows; 0.2 nM mTORC1, 10 μM ATP and 50 nM NHis-tagged 4E-BP1 in 20 mM Hepes, pH 7.2, 1 mM DTT, 50 mM NaCl, 10 mM MnCl2, 0.02 mg/mL BSA, 0.01% CHAPS, 50 mM ([…]. Following an incubation of 120 minutes at ambient temperature, 20 μL of the reaction volume was transferred to a Ni-Chelate-coated 384-well plate. The binding step of the 4E-BP1 protein proceeded for 60 minutes, followed by washing 4 times each with 50 μL of Tris-buffered saline solution (TBS). Anti-phospho-4E-BP1 rabbit-IgG (20 μL, 1:5000) in 5% BSA-TBST (0.2% Tween-20 in TBS) was added and further incubated for 60 minutes. Incubation with a secondary HRP-tagged anti-IgG was similarly performed after washing off the primary antibody (4 washes of 50 μL). Following the final wash step with TBST, 20 μL of SuperSignal ELISA Femto (Pierce Biotechnology) was added and the luminescence measured using an EnVision plate reader.

[7] = Mouse microsomal oxidation assay; type: in vitro ADME; settings: 15 μM compound, 0.5 mg/mL microsomal protein, 1 mM NADPH, 37° C., 30 min; +/−10% equivalent to little or no oxidation
Description: Mouse Microsomal Oxidation Assay
Microsomal oxidation of test compounds in the presence of mouse liver microsomal fractions was conducted in 96-well microtiter plates. Liver microsomal preparations were purchased from BD Gentest (Cat #452701). Test compounds were incubated in duplicate at 37° C. for 30 min in the presence of liver microsomes and NADPH. Reaction mixtures (75 μL) contained a final concentration of 15 μM test compound, 0.15% DMSO, 0.5 mg/mL microsomal protein and 1 mM NADPH in 100 mM potassium phosphate, pH 7.4 buffer. Control incubations contained the full complement of enzyme and substrate but no NADPH added. All test-sets included reference CYP450 substrates to verify assay performance. Reactions were terminated by the addition of 150 μL acetonitrile containing 0.1% formic acid. The concentration of the test compound remaining was determined by LC/MS/MS analysis on Sciex API-3000 instrument. The % oxidation is determined by the change in peak integration for the test compound (+/−NADPH) relative to the peak integration of internal standard injected with the sample: % oxidation=[((Int. peakcompound, no NADPH/Int. peakstandard)−(Int. peakcompound, NADPH/Int. peakstandard))[…]] Chromatographic separation of analytes was achieved using a Phenomenex Synergi Hydro-RP column (Torrance, Calif.) and a mobile phase consisting of 0.1% formic acid in acetonitrile and 0.1% formic acid in water. A linear gradient from 2-98% acetonitrile was used to elute compounds from the HPLC column. The typical variation (ie, precision) observed in the measurements for a given sample (e.g., multiple injections of the same sample) is ca. 10%, and thus experimental values of +/−10% can be considered to be equivalent to little or no oxidation.

Row | SMILES | pIC50 ([1]; PC-3, 48 hr) | pIC50 [2] | pIC50 [3] | pIC50 [4] | pIC50 [5] | pIC50 [6] | Mouse Liver Microsome Oxidation (%) [7] [%] | pIC50 ([1]; Homo sapiens, PC-3, 48 h) | pIC50 ([2]; Homo sapiens, PC-3, 3 h) | pIC50 ([5]; Homo sapiens, MCF7, 48 h)
1 | Cc1nc(N)nc2c1cc(-c1ccc(N)nc1)c(=O)n2C1CCCOC1 (centres unmarked) [listing 1 of 2 here] | 6.82 | 7.80 | 7.28 | 8.26 | 7.01 | 8.59 | 15.2 | – | – | –
2 | Cc1nc(N)nc2c1cc(-c1ccc(N)nc1)c(=O)n2[C@H]1CCCOC1 | – | – | 7.22 | 8.14 | – | 8.52 | – | – | – | –
3 | Cc1nc(N)nc2c1cc(-c1ccc(N)nc1)c(=O)n2C1CCOCC1 | – | – | 7.70 | 8.05 | – | 8.49 | −7.8 | 6.55 | 7.60 | 6.82
4 | Cc1nc(N)nc2c1cc(-c1ccc(N)nc1)c(=O)n2C1CCOC1 (centres unmarked) [listing 1 of 2 here] | – | – | – | – | – | – | 1.7 | 6.40 | 7.44 | 6.42
5 | Cc1nc(N)nc2c1cc(-c1ccc(N)nc1)c(=O)n2C1CCOC1 (centres unmarked) [listing 2 of 2 here] | 6.30 | 7.73 | 7.47 | > 8.04 | 6.66 | 8.60 | −8.2 | – | – | –
6 | Cc1nc(N)nc2c1cc(-c1ccc(N(C)C)nc1)c(=O)n2C1CCCOC1 (centres unmarked) [reference compound] [listing 1 of 2 here] | 6.13 | 7.02 | 6.69 | 7.87 | 6.82 | 8.21 | 31.2 | – | – | –
7 | Cc1nc(N)nc2c1cc(-c1ccc(N(C)C)nc1)c(=O)n2C1CCCOC1 (centres unmarked) [reference compound] [listing 2 of 2 here] | – | – | – | – | – | – | 41.3 | 5.88 | 7.14 | 6.61

Results, then the molecule that gave them:

Row | pIC50 ([1]; PC-3, 48 hr) | pIC50 [2] | pIC50 [3] | pIC50 [4] | pIC50 [5] | pIC50 [6] | Mouse Liver Microsome Oxidation (%) [7] [%] | pIC50 ([1]; Homo sapiens, PC-3, 48 h) | pIC50 ([2]; Homo sapiens, PC-3, 3 h) | pIC50 ([5]; Homo sapiens, MCF7, 48 h) | SMILES
8 | – | – | – | – | – | – | 6.6 | 6.53 | 7.59 | 6.82 | Cc1nc(N)nc2c1cc(-c1ccc(N)nc1)c(=O)n2C1CCCOC1 (centres unmarked) [listing 2 of 2 here]
9 | – | – | 7.78 | 7.81 | – | 8.26 | – | – | – | – | Cc1nc(N)nc2c1cc(-c1ccc(N)nc1)c(=O)n2[C@H]1CCOC1
10 | – | – | 6.33 | 8.04 | – | 8.24 | – | – | – | – | Cc1nc(N)nc2c1cc(-c1ccc(N(C)C)nc1)c(=O)n2[C@H]1CCCOC1 [reference compound]
11 | – | – | 8.17 | 8.55 | – | 8.17 | 45.6 | 6.33 | 7.39 | 6.66 | COc1ccc(-c2cc3c(C)nc(N)nc3n(C3CCCOC3)c2=O)cn1 (centres unmarked) [reference compound]
